≈ marks a conversion by molar mass, not a printed value.
Tests used:
[1] = Metabolic stability in human liver microsomes assessed as intrinsic clearance in liver at 1 uM incubated upto 60 mins in presence of NADPH by LC-MS/MS analysis; format: ADME, Microsome; conditions: read-out: CLH
[2] = Metabolic stability in human liver microsomes assessed as unchanged drug at 1 uM incubated upto 60 mins in presence of NADPH by LC-MS/MS analysis; format: ADME, Microsome; conditions: read-out: Stability
[3] = Metabolic stability in human liver microsomes assessed as half life at 1 uM incubated upto 60 mins in presence of NADPH by LC-MS/MS analysis; format: ADME, Microsome
[4] = Metabolic stability in rat liver microsomes assessed as unchanged drug at 1 uM incubated upto 60 mins in presence of NADPH by LC-MS/MS analysis; format: ADME, Microsome; conditions: read-out: Stability
Escherichia coli [5] = assay: Selectivity ratio of MIC for Escherichia coli SQ110 DTC harboring 23S rRNA A2058G/Gyr A Ser83Leu mutant to MIC for wild-type Escherichia coli SQ110 DTC; format: functional
Streptococcus pneumoniae [6] = assay: Antibacterial activity against Streptococcus pneumoniae PU 09 harboring mef gene incubated for 16 to 20 hrs by CLSI based broth microdilution method; format: functional; conditions: time 16-20 hrs
[7] = Metabolic stability in Escherichia coli SQ110 DTC assessed as unchanged drug at 5 to 10 times MIC measured after 60 mins by LC-MS/MS analysis; format: ADME; conditions: Escherichia coli SQ110 DTC cells, read-out: Stability
Streptococcus pyogenes [8] = assay: Bactericidal activity against Streptococcus pyogenes 01-968 harboring i-ermB gene incubated for 16 to 20 hrs by CLSI based broth microdilution method; format: functional; conditions: time 16-20 hrs
Staphylococcus aureus [9] = assay: Bactericidal activity against methicillin-resistant Staphylococcus aureus PU 20 harboring c-ermA gene incubated for 16 to 20 hrs by CLSI based broth microdilution method; format: functional; conditions: time 16-20 hrs
Staphylococcus aureus [10] = assay: Bactericidal activity against methicillin-resistant Staphylococcus aureus PU 32 harboring i-ermA gene incubated for 16 to 20 hrs by CLSI based broth microdilution method; format: functional; conditions: time 16-20 hrs
Streptococcus pneumoniae [11] = assay: Antibacterial activity against Streptococcus pneumoniae 07P390 harboring c-erm gene incubated for 16 to 20 hrs by CLSI based broth microdilution method; format: functional; conditions: time 16-20 hrs
Haemophilus influenzae [12] = assay: Antibacterial activity against Haemophilus influenzae ATCC 49247 incubated for 16 to 20 hrs by CLSI based broth microdilution method; format: functional; conditions: time 16-20 hrs
Escherichia coli [13] = assay: Antibacterial activity against Escherichia coli SQ110 DTC harboring 23S rRNA A2058G mutant incubated for 16 to 20 hrs by CLSI based broth microdilution method; format: functional; conditions: time 16-20 hrs
Escherichia coli [14] = assay: Selectivity ratio of MIC for Escherichia coli SQ110 DTC harboring 23S rRNA A2058G mutant to MIC for wild-type Escherichia coli SQ110 DTC; format: functional
Streptococcus pneumoniae [15] = assay: Antibacterial activity against Streptococcus pneumoniae ATCC 49619 incubated for 16 to 20 hrs by CLSI based broth microdilution method; format: functional; conditions: time 16-20 hrs
Streptococcus pneumoniae [16] = assay: Bactericidal activity against Streptococcus pneumoniae PU 09 harboring mef gene incubated for 16 to 20 hrs by CLSI based broth microdilution method; format: functional; conditions: time 16-20 hrs
HepG2 = assay: Cytotoxicity against human HepG2 cells assessed as cell viability at 5 to 50 uM incubated for 48 hrs by CCK8 assay; format: toxicity, cell-based; conditions: hepg2, 48 h, dose 5-50 µM
Streptococcus pneumoniae [17] = assay: Selectivity ratio of MBC for Streptococcus pneumoniae 07P390 harboring c-erm gene to MIC for Streptococcus pneumoniae 07P390 harboring c-erm gene; format: functional
DNA gyrase = DNA gyrase (Escherichia coli, UniProt P0AES4+P0AES6); assay: Inhibition of Escherichia coli DNA gyrase using pBR322 DNA as substrate incubated for 30 mins by electrophoresis; format: protein-complex assay
Streptococcus pneumoniae [18] = assay: Bactericidal activity against Streptococcus pneumoniae 07P390 harboring c-erm gene incubated for 16 to 20 hrs by CLSI based broth microdilution method; format: functional; conditions: time 16-20 hrs
Streptococcus pyogenes [19] = assay: Selectivity ratio of MBC for Streptococcus pyogenes 01-968 harboring i-ermB gene to MIC for Streptococcus pyogenes 01-968 harboring i-ermB gene; format: functional
Streptococcus pneumoniae [20] = assay: Selectivity ratio of MBC for Streptococcus pneumoniae ATCC 49619 to MIC for Streptococcus pneumoniae ATCC 49619; format: functional
[21] = Inhibition of Escherichia coli DNA supercoiling assessed as reduction in protein synthesis by firefly luciferase gene assay; format: functional
Staphylococcus aureus [22] = assay: Antibacterial activity against methicillin-resistant Staphylococcus aureus PU 32 harboring i-ermA gene incubated for 16 to 20 hrs by CLSI based broth microdilution method; format: functional; conditions: time 16-20 hrs
Escherichia coli [23] = assay: Selectivity ratio of MIC for Escherichia coli SQ110 DTC harboring Gyr A Ser83Leu mutant to MIC for wild-type Escherichia coli SQ110 DTC; format: functional
Haemophilus influenzae [24] = assay: Bactericidal activity against Haemophilus influenzae ATCC 49247 incubated for 16 to 20 hrs by CLSI based broth microdilution method; format: functional; conditions: time 16-20 hrs
Streptococcus pneumoniae [25] = assay: Bactericidal activity against Streptococcus pneumoniae ATCC 49619 incubated for 16 to 20 hrs by CLSI based broth microdilution method; format: functional; conditions: time 16-20 hrs
Escherichia coli [26] = assay: Antibacterial activity against Escherichia coli SQ110 DTC harboring Gyr A Ser83Leu mutant incubated for 16 to 20 hrs by CLSI based broth microdilution method; format: functional; conditions: time 16-20 hrs
Streptococcus pyogenes [27] = assay: Antibacterial activity against Streptococcus pyogenes 01-968 harboring i-ermB gene incubated for 16 to 20 hrs by CLSI based broth microdilution method; format: functional; conditions: time 16-20 hrs
Escherichia coli [28] = assay: Antibacterial activity against wild-type Escherichia coli SQ110 DTC incubated for 16 to 20 hrs by CLSI based broth microdilution method; format: functional; conditions: time 16-20 hrs
Haemophilus influenzae [29] = assay: Selectivity ratio of MBC for Haemophilus influenzae ATCC 49247 to MIC for Haemophilus influenzae ATCC 49247; format: functional
Staphylococcus aureus [30] = assay: Selectivity ratio of MBC for methicillin-resistant Staphylococcus aureus PU 32 harboring i-ermA gene to MIC for methicillin-resistant Staphylococcus aureus PU 32 harboring i-ermA gene; format: functional
Escherichia coli [31] = assay: Antibacterial activity against Escherichia coli SQ110 DTC harboring 23S rRNA A2058G/Gyr A Ser83Leu mutant incubated for 16 to 20 hrs by CLSI based broth microdilution method; format: functional; conditions: time 16-20 hrs
Staphylococcus aureus [32] = assay: Antibacterial activity against methicillin-resistant Staphylococcus aureus PU 20 harboring c-ermA gene incubated for 16 to 20 hrs by CLSI based broth microdilution method; format: functional; conditions: time 16-20 hrs
HEK-293T = assay: Cytotoxicity against HEK293T cells assessed as cell viability at 5 to 50 uM incubated for 48 hrs by CCK8 assay; format: toxicity, cell-based; conditions: human, dose 5-50 µM
Streptococcus pneumoniae [33] = assay: Selectivity ratio of MBC for Streptococcus pneumoniae PU 09 harboring mef gene to MIC for Streptococcus pneumoniae PU 09 harboring mef gene; format: functional

| SMILES | CLint scaled at 1 µM [1] | remaining at 1 h, 1 µM [2] | half-life at 1 µM [3] | remaining at 1 h, 1 µM [4] | Selectivity ratio (Escherichia coli [5]) | MIC (Streptococcus pneumoniae [6]) | MBC (Streptococcus pyogenes [8]) | MBC (Staphylococcus aureus [9]) | MBC (Staphylococcus aureus [10]) | MIC (Streptococcus pneumoniae [11]) | MIC (Haemophilus influenzae [12]) | MIC (Escherichia coli [13]) | Selectivity ratio (Escherichia coli [14]) | MIC (Streptococcus pneumoniae [15]) | MBC (Streptococcus pneumoniae [16]) | Selectivity ratio (Streptococcus pneumoniae [17]) | MBC (Streptococcus pneumoniae [18]) | Selectivity ratio (Streptococcus pyogenes [19]) | Selectivity ratio (Streptococcus pneumoniae [20]) | IC50 [21] | other results |
| --- | --- | --- | --- | --- | --- | --- | --- | --- | --- | --- | --- | --- | --- | --- | --- | --- | --- | --- | --- | --- | --- |
| CCOc1ccc2ccc(=O)oc2c1 | 58.7 mL/min/kg | 14.1% | 21.2 min | 1% | – | – | – | – | – | – | – | – | – | – | – | – | – | – | – | – | – |
| CC[C@H]1OC(=O)[C@H](C)[C@@H](OC(=O)CCNCCCCNc2cc3c(cc2F)c(=O)c(C(=O)O)cn3C2CC2)[C@H](C)[C@@H](O[C@@H]2O[C@H](C)C[C@H](N(C)C)[C@H]2O)[C@](C)(OC)C[C@@H](C)/C(=N\OCC#Cc2cncc(C(=O)NC)c2)[C@H](C)[C@H]2OC(=O)O[C@@]21C | 2.7 mL/min/kg | 91.3% | 459 min | 70.6% | >32 | ≤ 0.008 µg/mL | > 0.5 µg/mL | > 256 µg/mL | 32 µg/mL (≈ 26.9 µM) | 0.12 µg/mL (≈ 0.101 µM) | 2 µg/mL (≈ 1.68 µM) | 4 µg/mL (≈ 3.36 µM) | 1 | ≤ 0.008 µg/mL | 0.008 µg/mL (≈ 0.00672 µM) | 8 | 1 µg/mL (≈ 0.84 µM) | >8 | >=1 | 740 nM | remaining at 1 h [7]: 84.3%; Activity (HepG2): Non-Toxic; IC50 (DNA gyrase): 11900 nM; MIC (Staphylococcus aureus [22]): 32 µg/mL (≈ 26.9 µM); Selectivity ratio (Escherichia coli [23]): 2; MBC (Haemophilus influenzae [24]): 4 µg/mL (≈ 3.36 µM); MBC (Streptococcus pneumoniae [25]): 0.008 µg/mL (≈ 0.00672 µM); MIC (Escherichia coli [26]): 8 µg/mL (≈ 6.72 µM); MIC (Streptococcus pyogenes [27]): 0.06 µg/mL (≈ 0.0504 µM); MIC (Escherichia coli [28]): 4 µg/mL (≈ 3.36 µM); Selectivity ratio (Haemophilus influenzae [29]): 2; Selectivity ratio (Staphylococcus aureus [30]): 1; MIC (Escherichia coli [31]): > 128 µg/mL; MIC (Staphylococcus aureus [32]): > 256 µg/mL; Activity (HEK-293T): Non-Toxic |
| CC[C@H]1OC(=O)[C@H](C)[C@@H](OC(=O)CCNCCCCCNc2cc3c(cc2F)c(=O)c(C(=O)O)cn3C2CC2)[C@H](C)[C@@H](O[C@@H]2O[C@H](C)C[C@H](N(C)C)[C@H]2O)[C@](C)(OC)C[C@@H](C)/C(=N\OC)[C@H](C)[C@H]2OC(=O)O[C@@]21C | 21.8 mL/min/kg | 42% | 57.3 min | 98.4% | – | 0.5 µg/mL (≈ 0.478 µM) | > 0.062 µg/mL | > 256 µg/mL | 8 µg/mL (≈ 7.65 µM) | 1 µg/mL (≈ 0.956 µM) | 256 µg/mL (≈ 245 µM) | – | – | 0.062 µg/mL (≈ 0.0593 µM) | 1 µg/mL (≈ 0.956 µM) | 2 | 2 µg/mL (≈ 1.91 µM) | >8 | 2 | – | Selectivity ratio (Streptococcus pneumoniae [33]): 2; MIC (Staphylococcus aureus [22]): 1 µg/mL (≈ 0.956 µM); MBC (Haemophilus influenzae [24]): 256 µg/mL (≈ 245 µM); MBC (Streptococcus pneumoniae [25]): 0.125 µg/mL (≈ 0.119 µM); MIC (Streptococcus pyogenes [27]): ≤ 0.008 µg/mL; Selectivity ratio (Haemophilus influenzae [29]): 1; Selectivity ratio (Staphylococcus aureus [30]): 8; MIC (Staphylococcus aureus [32]): 128 µg/mL (≈ 122 µM) |
| CC[C@H]1OC(=O)[C@H](C)[C@@H](O[C@H]2C[C@@](C)(OC)[C@@H](O)[C@H](C)O2)[C@H](C)[C@@H](O[C@@H]2O[C@H](C)C[C@H](N(C)C)[C@H]2O)[C@](C)(O)C[C@@H](C)C(=O)[C@H](C)[C@@H](O)[C@]1(C)O [ERYTHROMYCIN] | – | – | – | – | >64 | – | – | – | – | – | – | > 128 µg/mL | >64 | – | – | – | – | – | – | 1100 nM | Selectivity ratio (Escherichia coli [23]): 1; MIC (Escherichia coli [26]): 2 µg/mL (≈ 2.73 µM); MIC (Escherichia coli [28]): 2 µg/mL (≈ 2.73 µM); MIC (Escherichia coli [31]): > 128 µg/mL |

Reference: ChEMBL document CHEMBL5608186, “Design, synthesis and structure-activity relationships of novel non-ketolides: 9-Oxime clarithromycin featured with seven-to thirteen-atom-length diamine linkers at 3-OH” (Eur J Med Chem, 2024)
